In patent US11845990B2, “Prediction of sleep parameter and response to sleep-inducing compound based on PER3 VNTR genotype” (Vanda Pharmaceuticals Inc., priority 2007, dated 2023):

How the values were obtained:
[1] = Solubility and pH of saturated solution; assay type: physicochemical
[2] = test system: healthy volunteers; experiment: Previous tolerability studies in healthy volunteers; assay type: in vivo
[3] = test system: healthy male and female subjects with induced transient insomnia; experiment: Induced transient insomnia clinical study (first night effect plus 5-hour phase advance), polysomnography, by PER3 VNTR genotype; assay type: in vivo, human; parameters: greater sleep efficiency over subjects on placebo (full night) / lower sleep efficiency than subjects on placebo (full night) / sleep efficiency higher than in placebo, first third of the night / sleep efficiency higher than in placebo, second third of the night / sleep efficiency lower than in placebo, first third of the night / sleep efficiency lower than in placebo, second third of the night: concentration or dose not given beside the values
Source text: The effect of this polymorphism was investigated with respect to various sleep parameters (latency to persistent sleep, wake after sleep onset, sleep efficiency), which evaluated objectively by polysomnography in healthy subjects treated with (1R-trans)-N-[[2-(2,3-dihydro-4-benzofuranyl)cyclopropyl]methyl]propanamide, or treated with a placebo, in a clinical protocol that models transient insomnia.
Transient insomnia can be induced in a laboratory setting as a result of a “first night effect” in which sleep onset and sleep maintenance are disrupted in normal sleeping adults by sleeping in an unfamiliar surrounding. This model of transient insomnia has been validated in several studies of normal sleeping adults. Insomnia can also be precipitated by other factors such as traveling across multiple time zones (jet lag). This condition can be reproduced in a sleep laboratory by forcing an earlier bedtime (phase advance). The study reported here used both, the first night effect and a 5-hour phase advance component, to increase the likelihood that transient insomnia will be induced. A multi-center, randomized, double-blind, placebo-controlled, parallel study was conducted to investigate the efficacy and safety of a single oral dose of (1R-trans)-N-[[2-(2,3-dihydro-4-benzofuranyl)cyclopropyl]methyl]propanamide (20 mg, 50 mg, and 100 mg) and matching placebo in healthy male and female subjects with induced transient insomnia. […] Latency to Persistent Sleep (LPS), Wake After Sleep Onset (WASO) and sleep efficiency (SE) were evaluated objectively by use of polysomnography.
More than 70% of subjects who enrolled in the clinical trial consented to the optional PG study. From those, 288 were genotyped for the PER3 VNTR polymorphism.

CCC(=O)NC[C@@H]1C[C@H]1c1cccc2c1CCO2 [(1R-trans)-N-[[2-(2,3-dihydro-4-benzofuranyl)cyclopropyl]methyl]propanamide]
solubility in organic solvents ([1]; 95% ethanol, methanol, acetonitrile, ethyl acetate, isopropanol, polyethylene glycols (PEG-300 and PEG-400)): very soluble or freely soluble
native pH of a saturated solution in water ([1]; saturated solution in water): 8.5
effect of pH on aqueous solubility ([1]; water): practically unaffected by pH
solubility in water ([1]; water): only slightly soluble
tolerability, multiple doses ([2]; multiple doses (up to 28 days) up to 150 mg): well-tolerated
tolerability, single doses ([2]; single doses up to 300 mg): well-tolerated
shorter LPS period than with placebo ([3]; PER3 4/4 and 4/5 genotypes): 30 min
shorter LPS period than with placebo (percent) ([3]; PER3 4/4 and 4/5 genotypes): 56%
smaller WASO than with placebo ([3]; PER3 4/4 and 4/5 genotypes): 21 min
smaller WASO than with placebo (percent) ([3]; PER3 4/4 and 4/5 genotypes): 16%
sleep efficiency higher than in placebo, first third of the night ([3]; PER3 4/4 and 4/5 genotypes, first third of night): 29%
greater sleep efficiency over subjects on placebo (full night) ([3]; PER3 4/4 and 4/5 genotypes, full night): 12%
sleep efficiency higher than in placebo, second third of the night ([3]; PER3 4/4 and 4/5 genotypes, second third of night): 22.8%
longer WASO than with placebo ([3]; PER3 5/5 genotype): 32 min
longer WASO than with placebo (percent) ([3]; PER3 5/5 genotype): 32.7%
shorter LPS than with placebo ([3]; PER3 5/5 genotype): 8 min
shorter LPS than with placebo (percent) ([3]; PER3 5/5 genotype): 27%
sleep efficiency lower than in placebo, first third of the night ([3]; PER3 5/5 genotype, first third of night): 7.2%
lower sleep efficiency than subjects on placebo (full night) ([3]; PER3 5/5 genotype, full night): 9.5%
sleep efficiency lower than in placebo, second third of the night ([3]; PER3 5/5 genotype, second third of night): 3.4%
efficacy in improving LPS, WASO, and Sleep Efficiency ([3]; single oral dose 20, 50 or 100 mg, induced transient insomnia, vs placebo): efficacious
sleep efficiency improvement in the third part of the night ([3]; third third of night, vs placebo): no improvement
